Consider one compound from patent US20100179225A1, “POI Prevention” (CYTOKINE PHARMASCIENCES, INC., priority 2008, published 2010).

One assay relates to p38-MAPK. In words: p38-MAPK phosphorylation in ME lysates after intestinal manipulation (immunoblot). Conditions: 5 mg/kg i.v. preoperative; 30 minutes after operation; compared to placebo group. Format: in vivo, C57BL/6J mice. An excerpt: (§1) The small bowel of the animals was subjected to a standardized, surgical manipulation (IM) as described previously (Kalff J C, Schraut W H, Simmons R L et al. Surgical manipulation of the gut elicits an intestinal muscularis inflammatory response resulting in postsurgical ileus. Ann Surg 1998; 228:652-663; Wehner S, Schwarz N T, Hundsdoerfer R et al. Induction of IL-6 within the rodent intestinal muscularis after intestinal surgical stress. Surgery 2005; 137:436-446). In brief, after anesthesia a midline abdominal incision was made into the peritoneal cavity. The entire small bowel was eventuated and manipulated with standardized moderate intensity using two moist cotton applicators as described previously. After IM, the laparotomy was closed by one layer of continuous suture, except when probe sampling was conducted within 20 minutes after surgery. […]
(§2) p38-MAPK and JNK/SAPK phosphorylation were analyzed in C57BL/6J mice 15, 30 and 60 minutes after IM and in unoperated controls. […] Finally, the sonicated samples were centrifuged at 13.000×g for 10 minutes, and total protein concentration was determined with Pierce BCA protein assay (Perbio, Bonn, Germany). […]
(§3) After PAGE, proteins were blotted on Immobilon-P […] PVDF membranes. […] Chemiluminscence signals were detected with a LAS 4000 system (Fujifilm, Duesseldorf, Germany).
(In general: A western blot detects proteins with antibodies after separation by electrophoresis.)

The test system of another assay is JNK/SAPK. In words: JNK/SAPK phosphorylation in ME lysates after intestinal manipulation (immunoblot). Format: in vivo, C57BL/6J mice. Particulars: 5 mg/kg i.v. preoperative; after IM.
From the text: as §1, §2, §3

The subject of another assay is MIP-1α mRNA. In words: Proinflammatory gene expression in ME, real-time RT-PCR: MIP-1α. Format: in vivo, mice. Conditions: 5 mg/kg i.v. preoperative, vs placebo IM. The source says:
The small bowel of the animals was subjected to a standardized, surgical manipulation (IM) as described previously (Kalff J C, Schraut W H, Simmons R L et al. Surgical manipulation of the gut elicits an intestinal muscularis inflammatory response resulting in postsurgical ileus. Ann Surg 1998; 228:652-663; Wehner S, Schwarz N T, Hundsdoerfer R et al. Induction of IL-6 within the rodent intestinal muscularis after intestinal surgical stress. Surgery 2005; 137:436-446). In brief, after anesthesia a midline abdominal incision was made into the peritoneal cavity. […]
Proinflammatory gene expression was analyzed in placebo and CNI-1493 (5 mg/kg) treated animals at 1, 3, 6 and 24 hours after operation; n=5-7 each group. […] Total RNA was analyzed in ME specimen that was prepared as described before (Wehner S, Behrendt F F, Lyutenski B N et al. Inhibition of macrophage function prevents intestinal inflammation and postoperative ileus in rodents. Gut 2007; 56:176-185). […] Expression of mRNA was quantified in triplicate by a RT-PCR with gene expression assays for […] (MCP-1; #Mm00441242_m1), CCL3 (MIP-1α #Mm00441258_m1), IL-6 (Assay ID #Mm00446190_ml), TNF-α (#Mm00443258_m1) and ICAM-1 (#Mm00516023_m1). […] Data quantification was performed by the ΔΔCT method. […]
On the technique in general: Quantitative PCR measures a nucleic acid by following its amplification.

As to `C/C(=N\N=C(N)N)c1cc(NC(=O)CCCCCCCCC(=O)Nc2cc(/C(C)=N/N=C(N)N)cc(/C(C)=N/N=C(N)N)c2)cc(/C(C)=N/N=C(N)N)c1.Cl.Cl.Cl.Cl` [CNI-1493], the “upregulation of p38-MAPK phosphorylation by IM” value in the assay with p38-MAPK is listed as “reduced near to control levels”. Besides, in the assay on JNK/SAPK, the JNK/SAPK phosphorylation result was “not affected”. In addition, the “reduction of MIP-1α expression” value in the assay on MIP-1α mRNA (3 hours after IM) came to 50%; with MIP-1α mRNA (6 hours after IM), 39%.
